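Cells were grown in 96-well plates and exposed to each compound for 48 hours at five concentrations; endpoints were interpolated linearly between bracketing concentrations, or set to the highest concentration if not reached. GI50: concentration for 50% inhibition of growth. TGI denotes the concentration required for complete inhibition of growth.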
Legend:
Assay in all cases: growth of human tumour cells (NCI), 48 h
A498 renal = test system: A498 renal
HL-60(TB) leukemia = test system: HL-60(TB) leukemia
HOP-62 NSCLC = test system: HOP-62 NSCLC
HOP-92 NSCLC = test system: HOP-92 NSCLC
NCI-H460 lung = test system: NCI-H460 lung
NCI-H522 lung = test system: NCI-H522 lung
SF-539 CNS = test system: SF-539 CNS
SK-MEL-28 melanoma = test system: SK-MEL-28 melanoma
UACC-62 melanoma = test system: UACC-62 melanoma
UO-31 renal = test system: UO-31 renal

Compound | GI50 (A498 renal) [µM] | TGI (A498 renal) [µM] | GI50 (HL-60(TB) leukemia) [µM] | TGI (HL-60(TB) leukemia) [µM] | GI50 (HOP-62 NSCLC) [µM] | TGI (HOP-62 NSCLC) [µM] | GI50 (HOP-92 NSCLC) [µM] | TGI (HOP-92 NSCLC) [µM] | GI50 (NCI-H460 lung) [µM] | TGI (NCI-H460 lung) [µM] | GI50 (NCI-H522 lung) [µM] | TGI (NCI-H522 lung) [µM] | GI50 (SF-539 CNS) [µM] | TGI (SF-539 CNS) [µM] | GI50 (SK-MEL-28 melanoma) [µM] | TGI (SK-MEL-28 melanoma) [µM] | GI50 (UACC-62 melanoma) [µM] | TGI (UACC-62 melanoma) [µM] | GI50 (UO-31 renal) [µM] | TGI (UO-31 renal) [µM]
CN1CCN(c2ccc(C(=O)Nc3cccc(C#Cc4cccc5[nH]nc(N)c45)c3)cc2C(F)(F)F)CC1 | 2.22 | 6.76 | 0.866 | 3.08 | 0.792 | 2.19 | 1.02 | 4.07 | 0.701 | 1.5 | 0.566 | 1.3 | 0.544 | 1.16 | 0.631 | 1.25 | 0.665 | 1.62 | 0.713 | 1.8
O=C1CCC2(c3ccccc3)Nc3ccc(Cl)cc3N12 (configuration not stated) |  | > 100 |  | > 100 |  | > 100 |  | > 100 |  | > 100 |  | > 100 |  | > 100 |  | > 100 |  | > 100 |  | > 100
Cn1c(C(C)(C)OC(=O)Oc2ccccc2)cnc1[N+](=O)[O-] |  | > 100 |  | > 100 |  | > 100 |  | > 100 |  | > 100 |  | > 100 |  | > 100 |  | > 100 |  | > 100 |  | > 100
CN(C)c1ccc(/C=N/NC(=O)c2cccc3ccccc23)c(Cl)c1 | 0.422 | 6.26 | 0.46 | 3.64 | 4.18 | 33.4 | 0.372 | 19.6 | 1.01 | > 100 | 1.12 | 39.4 | 1.73 | 26.1 | 3.5 | > 100 | 0.978 | > 100 | 14.6 | > 100
NC(CO)C(=O)NCC(=O)O (configuration not stated) |  | > 100 |  | > 100 |  | > 100 |  | > 100 |  | > 100 |  | > 100 |  | > 100 |  | > 100 |  | > 100 |  | > 100
CCN1C(=O)N(CC)C2C1NN=c1s/c(=C\c3cccc([N+](=O)[O-])c3)c(=O)n12 (configuration not stated) | 0.0254 | 0.0916 | 0.0496 | 0.21 | 0.104 | > 100 | 4.05 | > 100 | 0.0491 | > 100 | 0.0427 | 3.4 | 0.0397 | 0.396 |  | > 100 | 0.0539 | > 100 | 0.321 | > 100
COc1cc(C2C3=C(COC3=O)Nc3cc4c(cc32)OCO4)cc2c1OCO2 (configuration not stated) | 0.0276 | 0.12 | 0.059 |  | 0.0762 | > 87.2 | 3.24 | > 93.3 | 0.0734 | > 35 | 0.0219 | 0.0665 | 0.0394 | > 64.5 |  | > 100 | 0.0519 | > 100 | 0.332 | > 100
O=[N+]([O-])c1ccc(COc2cccc3cccnc23)cc1 |  | 79.2 |  | 22.3 |  | > 100 |  | > 100 |  | 17.2 |  | 19.4 |  | 92.7 |  | 85 |  | 45.2 |  | 68.1
